# How the values were obtained:
# Acetylcholinesterase [1] = target: Acetylcholinesterase (Torpedo californica, UniProt P04058); experiment: Inhibition of Torpedo californica AChE using acetylthiocholine chloride as substrate peincubated for 15 mins followed by substrate addition measured after 5 mins by Ellman's method; design: species or system Tetronarce californica
# Cholinesterase [2] = target: T1, Cholinesterase (Equus caballus, UniProt P81908); experiment: Inhibition of equine serum BuChE using butylthiocholine chloride as substrate peincubated for 15 mins followed by substrate addition measured at 1 min interval by Ellman's method
# Acetylcholinesterase [3] = target: T2, Acetylcholinesterase (Electrophorus electricus, UniProt O42275)
# Description: Inhibition of electric eel AChE using acetylthiocholine chloride as substrate peincubated for 15 mins followed by substrate addition measured at 1 min interval by Ellman's method
# [4] = target: Amyloid-beta precursor protein (Homo sapiens) (UniProt P05067); experiment: Inhibition of self-induced amyloid beta (1 to 42) (unknown origin) aggregation at 100 uM after 24 hrs by ThT fluorescence assay relative to control
# Acetylcholinesterase [5] = target: T2, Acetylcholinesterase; remark: listed apart in the source
# Description: (§1) Inhibition of electric eel AChE by Ellman's method
# Cholinesterase [6] = target: T1, Cholinesterase; experiment: Inhibition of equine serum BuChE by Ellman's method
# [7] = target: Amyloid-beta precursor protein (Homo sapiens) (UniProt P05067); experiment: Inhibition of self-induced amyloid beta (1 to 42) (unknown origin) aggregation at 100 uM after 24 hrs in presence of copper by ThT fluorescence assay relative to control
# Acetylcholinesterase [8] = target: T3, Acetylcholinesterase (Homo sapiens, UniProt P22303); experiment: Inhibition of human AChE using acetylthiocholine chloride as substrate peincubated for 15 mins followed by substrate addition measured at 1 min interval by Ellman's method
# Acetylcholinesterase [9] = target: T2, Acetylcholinesterase; remark: listed apart in the source
# Description: as §1
# [10] = target: T4, Amine oxidase [flavin-containing] A (Homo sapiens, UniProt P21397); experiment: Inhibition of human MAO A
# T4 sequence (P21397 whole entry): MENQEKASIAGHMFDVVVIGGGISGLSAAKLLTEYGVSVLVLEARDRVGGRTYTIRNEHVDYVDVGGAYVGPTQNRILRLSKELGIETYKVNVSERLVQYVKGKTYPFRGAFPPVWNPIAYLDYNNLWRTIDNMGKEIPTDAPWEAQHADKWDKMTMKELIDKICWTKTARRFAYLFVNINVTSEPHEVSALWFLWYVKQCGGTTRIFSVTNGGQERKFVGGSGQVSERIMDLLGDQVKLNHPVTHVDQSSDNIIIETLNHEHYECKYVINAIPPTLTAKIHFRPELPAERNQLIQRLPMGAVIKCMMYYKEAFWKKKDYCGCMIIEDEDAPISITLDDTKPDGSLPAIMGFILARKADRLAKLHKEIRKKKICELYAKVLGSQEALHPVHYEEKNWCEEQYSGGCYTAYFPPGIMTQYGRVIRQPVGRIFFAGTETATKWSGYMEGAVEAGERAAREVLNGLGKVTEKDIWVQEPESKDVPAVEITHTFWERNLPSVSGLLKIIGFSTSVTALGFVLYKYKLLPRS
# [11] = target: T5, Amine oxidase [flavin-containing] B (Homo sapiens, UniProt P27338); experiment: Inhibition of human MAO B
# T5 sequence (P27338 whole entry): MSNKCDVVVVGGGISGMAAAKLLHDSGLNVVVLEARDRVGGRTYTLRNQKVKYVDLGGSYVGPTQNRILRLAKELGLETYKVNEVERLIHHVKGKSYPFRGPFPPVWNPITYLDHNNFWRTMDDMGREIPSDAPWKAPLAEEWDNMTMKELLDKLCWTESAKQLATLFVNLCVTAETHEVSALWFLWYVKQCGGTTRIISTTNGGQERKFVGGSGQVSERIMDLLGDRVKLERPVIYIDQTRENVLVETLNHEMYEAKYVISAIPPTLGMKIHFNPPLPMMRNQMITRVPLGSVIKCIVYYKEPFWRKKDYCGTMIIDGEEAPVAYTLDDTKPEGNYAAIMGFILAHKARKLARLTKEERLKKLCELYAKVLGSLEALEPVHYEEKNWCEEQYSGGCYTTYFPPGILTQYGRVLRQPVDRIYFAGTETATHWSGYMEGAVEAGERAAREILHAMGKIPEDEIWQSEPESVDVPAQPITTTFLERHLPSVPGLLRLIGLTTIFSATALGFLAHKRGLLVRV
# Acetylcholinesterase [12] = target: T3, Acetylcholinesterase; conditions: 0.6 mg/kg
# [13] = target: Cholinesterase (Homo sapiens) (UniProt P06276); conditions: 0.6 mg/kg
# [14] = target: T6, Amine oxidase [flavin-containing] B (Rattus norvegicus, UniProt P19643); experiment: In-vivo inhibition of MAO B in rat brain at 26 mg/kg, po relative to control; type: functional, organism-based
# T6 sequence (P19643 whole entry): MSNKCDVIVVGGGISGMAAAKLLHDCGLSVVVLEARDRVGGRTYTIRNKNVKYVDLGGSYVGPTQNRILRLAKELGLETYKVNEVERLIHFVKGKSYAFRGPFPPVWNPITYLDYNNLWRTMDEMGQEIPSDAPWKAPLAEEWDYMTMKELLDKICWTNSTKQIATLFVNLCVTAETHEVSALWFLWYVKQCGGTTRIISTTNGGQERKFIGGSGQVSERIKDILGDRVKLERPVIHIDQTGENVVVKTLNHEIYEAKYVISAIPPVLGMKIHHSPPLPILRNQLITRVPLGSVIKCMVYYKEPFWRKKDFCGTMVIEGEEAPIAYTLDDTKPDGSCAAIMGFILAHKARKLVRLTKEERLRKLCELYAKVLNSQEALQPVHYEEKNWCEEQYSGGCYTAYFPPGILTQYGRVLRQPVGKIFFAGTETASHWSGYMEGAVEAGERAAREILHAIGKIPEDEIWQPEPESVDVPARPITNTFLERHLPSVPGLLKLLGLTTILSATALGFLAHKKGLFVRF
# [15] = target: T7, Amine oxidase [flavin-containing] A (Rattus norvegicus, UniProt P21396); experiment: In-vivo inhibition of MAO A in rat brain at 26 mg/kg, po relative to control; type: functional, organism-based
# T7 sequence (P21396 whole entry): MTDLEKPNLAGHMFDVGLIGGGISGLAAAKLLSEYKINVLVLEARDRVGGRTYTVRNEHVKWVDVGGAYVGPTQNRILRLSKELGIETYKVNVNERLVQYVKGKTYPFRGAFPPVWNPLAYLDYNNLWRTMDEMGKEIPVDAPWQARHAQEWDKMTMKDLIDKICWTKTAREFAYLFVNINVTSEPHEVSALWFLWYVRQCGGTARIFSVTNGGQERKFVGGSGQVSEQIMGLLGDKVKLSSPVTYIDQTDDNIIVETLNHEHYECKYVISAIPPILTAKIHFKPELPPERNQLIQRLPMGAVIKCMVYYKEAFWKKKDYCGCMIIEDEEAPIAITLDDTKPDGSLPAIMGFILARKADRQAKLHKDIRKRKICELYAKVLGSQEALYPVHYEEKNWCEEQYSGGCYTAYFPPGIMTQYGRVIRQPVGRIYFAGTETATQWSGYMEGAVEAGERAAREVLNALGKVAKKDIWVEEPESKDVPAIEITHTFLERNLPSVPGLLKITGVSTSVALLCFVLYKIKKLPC
# Amyloid-beta precursor protein (Homo sapiens), sequence (P05067 whole entry): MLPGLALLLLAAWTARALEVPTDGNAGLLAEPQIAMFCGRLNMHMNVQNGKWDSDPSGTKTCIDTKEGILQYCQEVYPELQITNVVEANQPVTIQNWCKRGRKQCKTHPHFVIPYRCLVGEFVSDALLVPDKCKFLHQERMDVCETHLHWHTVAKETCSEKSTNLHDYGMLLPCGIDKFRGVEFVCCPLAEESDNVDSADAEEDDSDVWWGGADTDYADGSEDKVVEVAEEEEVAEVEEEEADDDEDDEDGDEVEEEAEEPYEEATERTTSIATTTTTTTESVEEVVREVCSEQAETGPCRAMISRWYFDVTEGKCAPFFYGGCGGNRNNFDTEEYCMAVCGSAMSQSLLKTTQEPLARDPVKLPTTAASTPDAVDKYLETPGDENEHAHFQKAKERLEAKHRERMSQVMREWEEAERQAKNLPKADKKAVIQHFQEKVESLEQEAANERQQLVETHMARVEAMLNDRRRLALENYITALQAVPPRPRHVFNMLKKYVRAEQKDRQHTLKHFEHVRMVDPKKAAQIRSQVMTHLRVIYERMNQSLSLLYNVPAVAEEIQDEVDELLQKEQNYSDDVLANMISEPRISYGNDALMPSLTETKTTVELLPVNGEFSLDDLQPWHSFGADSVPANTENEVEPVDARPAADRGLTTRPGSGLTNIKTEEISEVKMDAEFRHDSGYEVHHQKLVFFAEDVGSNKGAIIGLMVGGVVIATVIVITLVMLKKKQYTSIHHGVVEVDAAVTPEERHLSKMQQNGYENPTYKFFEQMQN
# T3 sequence (P22303 whole entry): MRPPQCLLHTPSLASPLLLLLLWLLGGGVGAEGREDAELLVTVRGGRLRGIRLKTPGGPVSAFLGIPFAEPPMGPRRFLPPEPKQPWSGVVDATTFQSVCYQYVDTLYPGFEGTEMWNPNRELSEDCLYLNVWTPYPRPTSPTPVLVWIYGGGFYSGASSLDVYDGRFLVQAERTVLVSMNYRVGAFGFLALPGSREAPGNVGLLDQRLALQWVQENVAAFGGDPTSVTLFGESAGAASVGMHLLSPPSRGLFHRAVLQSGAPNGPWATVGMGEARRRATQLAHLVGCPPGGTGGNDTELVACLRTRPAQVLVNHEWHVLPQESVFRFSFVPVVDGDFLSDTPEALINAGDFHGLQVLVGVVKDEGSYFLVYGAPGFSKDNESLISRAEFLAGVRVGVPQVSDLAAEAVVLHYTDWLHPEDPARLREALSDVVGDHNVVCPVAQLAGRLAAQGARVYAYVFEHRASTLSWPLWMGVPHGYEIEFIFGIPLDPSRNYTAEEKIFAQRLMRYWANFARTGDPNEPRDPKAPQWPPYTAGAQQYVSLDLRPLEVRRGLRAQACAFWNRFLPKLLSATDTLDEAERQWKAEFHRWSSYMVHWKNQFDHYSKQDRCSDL
# T2 sequence (O42275 whole entry): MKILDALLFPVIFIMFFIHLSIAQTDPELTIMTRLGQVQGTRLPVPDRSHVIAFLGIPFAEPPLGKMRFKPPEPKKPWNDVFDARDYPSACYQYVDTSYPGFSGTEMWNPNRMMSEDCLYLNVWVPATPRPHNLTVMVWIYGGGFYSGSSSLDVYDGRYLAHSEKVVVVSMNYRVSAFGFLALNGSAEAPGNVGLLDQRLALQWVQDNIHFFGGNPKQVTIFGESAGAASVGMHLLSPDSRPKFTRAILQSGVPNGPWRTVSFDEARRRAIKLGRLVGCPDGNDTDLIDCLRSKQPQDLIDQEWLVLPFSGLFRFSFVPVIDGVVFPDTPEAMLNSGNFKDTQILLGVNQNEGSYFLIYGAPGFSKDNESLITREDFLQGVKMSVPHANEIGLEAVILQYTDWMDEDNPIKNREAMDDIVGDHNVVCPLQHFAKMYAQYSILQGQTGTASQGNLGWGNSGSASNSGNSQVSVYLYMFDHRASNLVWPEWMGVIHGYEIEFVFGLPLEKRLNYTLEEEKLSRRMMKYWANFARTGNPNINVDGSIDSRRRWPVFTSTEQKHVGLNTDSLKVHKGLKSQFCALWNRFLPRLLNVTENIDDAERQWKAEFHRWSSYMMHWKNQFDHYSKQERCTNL
# Acetylcholinesterase (Torpedo californica, UniProt P04058), sequence (P04058 whole entry): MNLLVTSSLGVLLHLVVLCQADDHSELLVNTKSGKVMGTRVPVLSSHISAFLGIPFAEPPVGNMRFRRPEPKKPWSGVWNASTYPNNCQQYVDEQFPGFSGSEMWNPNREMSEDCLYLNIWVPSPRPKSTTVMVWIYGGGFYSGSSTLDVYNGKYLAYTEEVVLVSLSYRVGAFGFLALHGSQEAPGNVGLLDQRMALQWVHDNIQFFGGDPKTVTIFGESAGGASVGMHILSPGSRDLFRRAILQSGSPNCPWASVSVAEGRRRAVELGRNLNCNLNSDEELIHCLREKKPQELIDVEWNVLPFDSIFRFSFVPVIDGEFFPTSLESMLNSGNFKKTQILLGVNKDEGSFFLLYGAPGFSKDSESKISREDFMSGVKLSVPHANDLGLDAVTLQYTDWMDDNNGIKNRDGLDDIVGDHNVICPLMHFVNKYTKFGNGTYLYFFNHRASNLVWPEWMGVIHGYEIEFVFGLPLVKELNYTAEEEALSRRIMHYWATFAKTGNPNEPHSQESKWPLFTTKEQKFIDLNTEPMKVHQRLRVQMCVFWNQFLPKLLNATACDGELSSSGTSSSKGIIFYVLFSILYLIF
# T1 sequence (P81908 whole entry): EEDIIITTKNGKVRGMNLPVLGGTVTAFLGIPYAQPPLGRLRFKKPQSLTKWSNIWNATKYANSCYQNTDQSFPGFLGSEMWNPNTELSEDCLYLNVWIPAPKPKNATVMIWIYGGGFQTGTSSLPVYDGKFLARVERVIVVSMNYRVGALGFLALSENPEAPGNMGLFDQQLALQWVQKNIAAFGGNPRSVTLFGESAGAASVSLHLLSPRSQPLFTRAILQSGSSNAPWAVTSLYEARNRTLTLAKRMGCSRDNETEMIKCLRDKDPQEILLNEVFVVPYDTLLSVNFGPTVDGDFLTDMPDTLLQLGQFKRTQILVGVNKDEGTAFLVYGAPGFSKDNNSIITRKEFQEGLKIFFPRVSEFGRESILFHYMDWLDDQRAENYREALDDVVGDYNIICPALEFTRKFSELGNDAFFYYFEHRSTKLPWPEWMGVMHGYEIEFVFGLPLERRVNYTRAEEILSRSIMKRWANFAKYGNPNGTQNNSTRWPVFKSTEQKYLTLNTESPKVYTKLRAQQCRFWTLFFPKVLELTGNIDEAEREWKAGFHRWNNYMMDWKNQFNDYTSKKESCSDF
# Cholinesterase (Homo sapiens), sequence (P06276 whole entry): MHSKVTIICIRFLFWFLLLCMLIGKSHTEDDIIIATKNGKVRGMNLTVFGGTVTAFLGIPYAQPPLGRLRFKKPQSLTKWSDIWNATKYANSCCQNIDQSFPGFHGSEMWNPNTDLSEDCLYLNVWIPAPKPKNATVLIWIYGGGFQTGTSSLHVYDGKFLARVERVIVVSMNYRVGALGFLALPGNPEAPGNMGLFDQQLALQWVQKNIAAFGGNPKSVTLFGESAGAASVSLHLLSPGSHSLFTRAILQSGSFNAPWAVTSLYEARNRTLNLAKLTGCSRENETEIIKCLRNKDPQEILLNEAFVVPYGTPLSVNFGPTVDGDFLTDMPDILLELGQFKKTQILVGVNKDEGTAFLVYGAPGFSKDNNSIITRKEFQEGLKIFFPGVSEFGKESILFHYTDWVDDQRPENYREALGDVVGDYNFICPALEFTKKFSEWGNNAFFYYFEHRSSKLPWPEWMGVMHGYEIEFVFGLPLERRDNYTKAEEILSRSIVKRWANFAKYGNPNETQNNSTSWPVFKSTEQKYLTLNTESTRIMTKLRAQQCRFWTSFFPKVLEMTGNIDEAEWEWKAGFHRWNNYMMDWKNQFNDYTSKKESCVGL
smiles,measurement,setting,value
C=CCSCC(NC(=O)CCCNc1c2c(nc3ccccc13)CCCC2)C(=O)Nc1nc2ccccc2s1 (stereo unspecified),IC50,Acetylcholinesterase [1],250 to 280 nM
C#CCN(CC#C)CCNc1c2c(nc3ccccc13)CCCC2,IC50,Cholinesterase [2],353 nM
same,IC50,Acetylcholinesterase [3],339 nM
C#CCSCC(NC(=O)CCCCCNc1c2c(nc3ccccc13)CCCC2)C(=O)Nc1nc2ccccc2s1 (stereo unspecified),IC50,Acetylcholinesterase [1],250 to 280 nM
C=CCSCC(NC(=O)CCCCCNc1c2c(nc3ccccc13)CCCC2)C(=O)Nc1nc2ccccc2s1 (stereo unspecified),inhibition,[4],78.2%
same,IC50,Acetylcholinesterase [1],250 to 280 nM
C#CCSCC(NC(=O)CCCNc1c2c(nc3ccccc13)CCCC2)C(=O)Nc1nc2ccccc2s1 (stereo unspecified),inhibition,[4],77.2%
same,IC50,Acetylcholinesterase [1],250 to 280 nM
C#CCN(C)c1nc(NCCCCC2CCN(Cc3ccccc3)CC2)c(C#N)cc1C#N,IC50,Acetylcholinesterase [5],1.1 nM
same,IC50,Cholinesterase [6],600 nM
C#CCSCC(NC(=O)CCCNc1c2c(nc3cc(Cl)ccc13)CCCC2)C(=O)Nc1nc2ccccc2s1 (stereo unspecified),inhibition,[7],37.6%
same,inhibition,[4],24.1%
same,IC50,Acetylcholinesterase [1],250 nM
C=CCSCC(NC(=O)CCCNc1c2c(nc3cc(Cl)ccc13)CCCC2)C(=O)Nc1nc2ccccc2s1 (stereo unspecified),inhibition,[7],56.6%
same,inhibition,[4],31.6%
same,IC50,Acetylcholinesterase [1],250 to 280 nM
C#CCNc1c2c(nc3ccccc13)CCCC2,IC50,Cholinesterase [2],77.6 nM
same,IC50,Acetylcholinesterase [3],51.3 to 106 nM
same,IC50,Acetylcholinesterase [8],50.7 nM
C#CCN(C)Cc1cc2ccc(OC)cc2oc1=O,IC50,Acetylcholinesterase [9],2780 to 14400 nM
C#CCN(CC#C)c1c2c(nc3cc(Cl)ccc13)CCCC2,IC50,Cholinesterase [2],5380 nM
same,IC50,Acetylcholinesterase [3],884 nM
C#CCSC[C@@H](N)C(=O)NCCCCNc1c2c(nc3ccccc13)CCCC2,IC50,Acetylcholinesterase [1],1210 nM
C#CCN(C)Cc1cc2cc(OCCCC3CCN(Cc4ccccc4)CC3)ccc2n1C,IC50,[10],5.44 nM
same,IC50,[11],177 nM
Nc1c2c(nc3cc(Cl)ccc13)CCCC2,IC50,Acetylcholinesterase [3],23.5 nM
CCN(C)C(=O)Oc1cccc([C@H](C)N(C)C)c1,inhibition,Acetylcholinesterase [12],40%
same,inhibition,[13],25%
C#CCNc1c2c(nc3cc(Cl)ccc13)CCCC2,IC50,Cholinesterase [2],83.5 nM
same,IC50,Acetylcholinesterase [3],11.2 nM
same,IC50,Acetylcholinesterase [8],9.4 nM
C=CCSC[C@@H](N)C(=O)NCCCNc1c2c(nc3cc(Cl)ccc13)CCCC2,IC50,Acetylcholinesterase [1],300 nM
C#CCNCCNc1c2c(nc3ccccc13)CCCC2,IC50,Acetylcholinesterase [3],226 nM
C#CCN(C)Cc1cc2cc(OC)c(O)cc2oc1=O,IC50,Acetylcholinesterase [9],2780 to 14400 nM
C#CCN[C@@H]1CCc2ccc(OC(=O)N(C)CC)cc21 [LADOSTIGIL],inhibition at 26 mg/kg,[14],70%
same,inhibition at 26 mg/kg,[15],70%
C=CCSCC(NC(=O)CCCCCNc1c2c(nc3cc(Cl)ccc13)CCCC2)C(=O)Nc1nc2ccccc2s1 (stereo unspecified),IC50,Acetylcholinesterase [1],280 nM
C#CCSC[C@@H](N)C(=O)NCCCNc1c2c(nc3cc(Cl)ccc13)CCCC2,IC50,Acetylcholinesterase [1],560 nM
C#CCN(C)Cc1cc2ccccc2oc1=O,IC50,Acetylcholinesterase [9],2780 to 14400 nM
C#CCSCC(NC(=O)CCCCCNc1c2c(nc3cc(Cl)ccc13)CCCC2)C(=O)Nc1nc2ccccc2s1 (stereo unspecified),IC50,Acetylcholinesterase [1],250 to 280 nM
C=CCSC[C@@H](N)C(=O)NCCCNc1c2c(nc3ccccc13)CCCC2,IC50,Acetylcholinesterase [1],880 nM
